Data from the supplement of paper PMC10627819.

How the values were obtained:
Test in all cases: fitness (endpoint OD595 vs no drug) (fraction); higher = more growth
B. subtilis 168 = tested on: B. subtilis 168
Summary of the method: (§1)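 Plates with 384 wells were inoculated at OD595 0.01 using 30 µl of TSB, LB Lennox or CY, or 55 µl for S. pneumoniae. Incubation was at 37 °C, with OD595 measured every 30 min for 14 h. Fitness is the stationary-phase transition optical density over the robust mean of no-drug control wells, after first-reading background subtraction; it is capped at 1.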

S. aureus Newman = tested on: S. aureus Newman
Summary of the method: as §1

S. aureus DSM 20231 = tested on: S. aureus DSM 20231
Summary of the method: as §1

S. pneumoniae D39V = tested on: S. pneumoniae D39V
Summary of the method: as §1

N[C@@H]1CONC1=O [Cycloserine D] + CC(C1CCC(C(O1)OC2C(CC(C(C2O)OC3C(C(C(CO3)(C)O)NC)O)N)N)N)NC [Gentamicin]
main component drawn
Settings | fitness
B. subtilis 168, first compound 0.125 µg/mL, partner 0.0625 µg/mL | 0.964
B. subtilis 168, first compound 0.125 µg/mL, partner 0.25 µg/mL | 0.102
B. subtilis 168, first compound 0.25 µg/mL, partner 0.0625 µg/mL | 0.943
B. subtilis 168, first compound 0.25 µg/mL, partner 0.25 µg/mL | 0.0775
B. subtilis 168, first compound 0.5 µg/mL, partner 0.0625 µg/mL | 0.914
B. subtilis 168, first compound 0.5 µg/mL, partner 0.25 µg/mL | 0.0653
S. aureus Newman, first compound 0.375 µg/mL, partner 0.375 µg/mL | 0.986
S. aureus Newman, first compound 0.375 µg/mL, partner 0.5 µg/mL | 0.923
S. aureus Newman, first compound 0.375 µg/mL, partner 0.75 µg/mL | 0.974
S. aureus Newman, first compound 0.375 µg/mL, partner 1 µg/mL | ≥ 1
S. aureus Newman, first compound 0.375 µg/mL, partner 1.5 µg/mL | 0.955
S. aureus Newman, first compound 0.375 µg/mL, partner 2 µg/mL | ≥ 1
S. aureus Newman, first compound 0.75 µg/mL, partner 0.375 µg/mL | ≥ 1
S. aureus Newman, first compound 0.75 µg/mL, partner 0.5 µg/mL | 0.921
S. aureus Newman, first compound 0.75 µg/mL, partner 0.75 µg/mL | ≥ 1
S. aureus Newman, first compound 0.75 µg/mL, partner 1 µg/mL | ≥ 1
S. aureus Newman, first compound 0.75 µg/mL, partner 2 µg/mL | ≥ 1
S. aureus Newman, first compound 1.5 µg/mL, partner 0.375 µg/mL | 1
S. aureus Newman, first compound 1.5 µg/mL, partner 0.5 µg/mL | 0.952
S. aureus Newman, first compound 1.5 µg/mL, partner 0.75 µg/mL | ≥ 1
S. aureus Newman, first compound 1.5 µg/mL, partner 1 µg/mL | ≥ 1
S. aureus Newman, first compound 1.5 µg/mL, partner 2 µg/mL | ≥ 1

N[C@@H]1CONC1=O [Cycloserine D] + CCC[C@@H]1C[C@@H](C(=O)N[C@@H]([C@H]2O[C@H](SC)[C@H](O)[C@@H](O)[C@H]2O)[C@@H](C)O)N(C)C1 [Lincomycin]
fitness
Settings | first compound 0.125 µg/mL | first compound 0.25 µg/mL | first compound 0.375 µg/mL | first compound 0.5 µg/mL | first compound 0.75 µg/mL | first compound 1.5 µg/mL
B. subtilis 168, partner 0.1 µg/mL | 0.87 | 0.873 | – | 0.911 | – | –
B. subtilis 168, partner 0.2 µg/mL | 0.861 | 0.877 | – | 0.932 | – | –
B. subtilis 168, partner 0.4 µg/mL | 0.868 | 0.906 | – | 0.964 | – | –
S. aureus DSM 20231, partner 0.1 µg/mL | – | – | 0.936 | – | 0.921 | 0.915
S. aureus DSM 20231, partner 0.4 µg/mL | – | – | 0.278 | – | 0.271 | 0.247

fitness, B. subtilis 168, one replicate
Settings | first compound 0.125 µg/mL | first compound 0.25 µg/mL | first compound 0.5 µg/mL
partner 0.8 µg/mL | 0.923 | 0.939 | 0.905
partner 1.6 µg/mL | 0.88 | 0.813 | 0.862

N[C@@H]1CONC1=O [Cycloserine D] + CN(C)c1cc(NC(=O)CNC(C)(C)C)c(O)c2c1C[C@H]1C[C@H]3[C@H](N(C)C)C(O)=C(C(N)=O)C(=O)[C@@]3(O)C(O)=C1C2=O [Tigecycline]
fitness
Settings | first compound 0.125 µg/mL | first compound 0.25 µg/mL | first compound 0.375 µg/mL | first compound 0.5 µg/mL | first compound 0.75 µg/mL | first compound 1.5 µg/mL
B. subtilis 168, partner 0.039 µg/mL | 0.944 | 0.987 | – | ≥ 1 | – | –
B. subtilis 168, partner 0.078 µg/mL | 0.955 | 0.867 | – | 0.912 | – | –
B. subtilis 168, partner 0.156 µg/mL | 0.914 | 0.911 | – | 0.982 | – | –
S. aureus Newman, partner 0.039 µg/mL | – | – | 0.956 | – | 0.936 | 0.931
S. aureus Newman, partner 0.078 µg/mL | – | – | 0.981 | – | ≥ 1 | 0.994
S. aureus Newman, partner 0.156 µg/mL | – | – | 0.986 | – | 0.983 | 0.971

fitness, B. subtilis 168, one replicate
Settings | first compound 0.125 µg/mL | first compound 0.25 µg/mL | first compound 0.5 µg/mL
partner 0.125 µg/mL | ≥ 1 | ≥ 1 | 0.994
partner 0.25 µg/mL | ≥ 1 | 0.97 | 0.922
partner 0.5 µg/mL | 0.944 | 0.94 | ≥ 1

N[C@@H]1CONC1=O [Cycloserine D] + CN[C@@H]1[C@H](O[C@H]2[C@H](O[C@H]3[C@H](O)[C@@H](O)[C@H](N=C(N)N)[C@@H](O)[C@@H]3N=C(N)N)O[C@@H](C)[C@]2(O)C=O)O[C@@H](CO)[C@H](O)[C@H]1O [Streptomycin]
fitness
Settings | first compound 0.125 µg/mL | first compound 0.25 µg/mL | first compound 0.375 µg/mL | first compound 0.5 µg/mL | first compound 0.75 µg/mL | first compound 1.5 µg/mL
B. subtilis 168, partner 2 µg/mL | 0.931 | 0.937 | – | 0.982 | – | –
B. subtilis 168, partner 8 µg/mL | 0.0826 | 0.0554 | – | 0.074 | – | –
S. aureus Newman, partner 1 µg/mL | – | – | 0.984 | – | 0.985 | 0.978
S. aureus Newman, partner 2 µg/mL | – | – | 0.976 | – | 0.93 | 0.941

N[C@@H]1CONC1=O [Cycloserine D] + COc1cc(Cc2cnc(N)nc2N)cc(OC)c1OC [Trimethoprim]
fitness, B. subtilis 168, one replicate
Settings | partner 0.1 µg/mL | partner 0.2 µg/mL | partner 0.4 µg/mL | partner 1 µg/mL | partner 2 µg/mL
first compound 0.125 µg/mL | 0.917 | 0.789 | 0.584 | 0.344 | 0.268
first compound 0.25 µg/mL | 0.849 | 0.757 | 0.56 | 0.323 | 0.243
first compound 0.5 µg/mL | 0.986 | 0.818 | 0.533 | 0.358 | 0.234

fitness
Settings | partner 0.125 µg/mL | partner 0.25 µg/mL | partner 0.5 µg/mL | partner 1 µg/mL
B. subtilis 168, first compound 0.125 µg/mL | 0.635 | 0.501 | 0.475 | –
B. subtilis 168, first compound 0.25 µg/mL | 0.664 | – | 0.48 | –
B. subtilis 168, first compound 0.5 µg/mL | 0.664 | – | 0.511 | –
S. aureus DSM 20231, first compound 0.375 µg/mL | 0.758 | – | – | 0.0316
S. aureus DSM 20231, first compound 0.75 µg/mL | 0.807 | 0.61 | – | 0.0296
S. aureus DSM 20231, first compound 1.5 µg/mL | 0.804 | 0.569 | – | 0.0385

O=C(O[C@@H]1Cc2c(O)cc(O)cc2O[C@@H]1c1cc(O)c(O)c(O)c1)c1cc(O)c(O)c(O)c1 [EGCG] + CC1(C)S[C@@H]2[C@H](NC(=O)Cc3ccccc3)C(=O)N2[C@H]1C(=O)O [Penicillin G]
fitness, S. aureus Newman
Settings | first compound 12.5 µg/mL | first compound 25 µg/mL | first compound 50 µg/mL
partner 0.0195 µg/mL | 0.738 | 0.623 | –
partner 0.039 µg/mL | 0.743 | 0.739 | 0.594
partner 0.078 µg/mL | 0.741 | 0.729 | 0.644

O=C(O[C@@H]1Cc2c(O)cc(O)cc2O[C@@H]1c1cc(O)c(O)c(O)c1)c1cc(O)c(O)c(O)c1 [EGCG] + CC1=C(C(=O)O)N2C(=O)[C@@H](NC(=O)[C@H](N)c3ccccc3)[C@H]2SC1 [Cephalexin]
fitness, one replicate
Settings | first compound 6.25 µg/mL | first compound 12.5 µg/mL | first compound 25 µg/mL | first compound 50 µg/mL
B. subtilis 168, partner 1 µg/mL | 0.993 | 0.862 | 0.697 | –
S. pneumoniae D39V, partner 0.125 µg/mL | – | 0.926 | 0.96 | ≥ 1
S. pneumoniae D39V, partner 0.25 µg/mL | – | 0.902 | 0.919 | 0.937
S. pneumoniae D39V, partner 0.5 µg/mL | – | 0.932 | 0.98 | 0.957

fitness
Settings | first compound 6.25 µg/mL | first compound 12.5 µg/mL | first compound 25 µg/mL | first compound 50 µg/mL
B. subtilis 168, partner 0.125 µg/mL | 0.875 | 0.51 | 0.222 | –
B. subtilis 168, partner 0.25 µg/mL | 0.988 | – | – | –
B. subtilis 168, partner 0.5 µg/mL | 0.919 | – | – | –
S. aureus Newman, partner 0.25 µg/mL | – | 0.737 | 0.682 | 0.775
S. aureus Newman, partner 0.5 µg/mL | – | 0.776 | 0.762 | 0.739
S. aureus Newman, partner 1 µg/mL | – | 0.796 | 0.806 | 0.79
S. pneumoniae D39V, partner 1 µg/mL | – | 0.669 | 0.72 | –
S. pneumoniae D39V, partner 2 µg/mL | – | 0.0733 | 0.2 | 0.111
S. pneumoniae D39V, partner 4 µg/mL | – | 0.0244 | 0.0566 | 0.0515
